Here are results for 35 compounds from ChEMBL document CHEMBL1833871, “3D QSAR and docking study of flavone derivatives as potent inhibitors of influenza H1N1 virus neuraminidase” (Bioorg Med Chem Lett, 2011).

This assay deals with Neuraminidase (Influenza A virus (A/Puerto Rico/8/1934(H1N1)), UniProt P03468). The assay can be described thus: Inhibition of influenza A virus A/PR/8/34(H1N1) neuraminidase assessed as fluorescent product using MUNANA as substrate after 60 mins by fluorescence analysis.
Neuraminidase (Influenza A virus (A/Puerto Rico/8/1934(H1N1)), UniProt P03468), sequence (P03468 whole entry): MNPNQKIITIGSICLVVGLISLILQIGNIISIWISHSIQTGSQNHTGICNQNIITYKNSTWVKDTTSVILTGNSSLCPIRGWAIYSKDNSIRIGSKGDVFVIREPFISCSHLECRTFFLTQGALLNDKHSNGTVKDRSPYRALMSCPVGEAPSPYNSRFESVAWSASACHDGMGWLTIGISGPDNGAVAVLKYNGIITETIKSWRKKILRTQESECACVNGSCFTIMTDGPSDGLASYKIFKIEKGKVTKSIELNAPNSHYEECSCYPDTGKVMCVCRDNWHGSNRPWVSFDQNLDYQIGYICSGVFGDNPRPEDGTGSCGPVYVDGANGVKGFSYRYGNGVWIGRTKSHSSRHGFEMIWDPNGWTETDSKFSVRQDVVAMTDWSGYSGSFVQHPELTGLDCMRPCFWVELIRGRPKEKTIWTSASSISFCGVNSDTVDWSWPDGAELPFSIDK
In the case of `O=c1cc(-c2ccc(O)cc2)oc2c(CN3CCC(Cc4ccccc4)CC3)c(O)cc(O)c12`, the IC50 was 46.1 µM.
To `O=c1cc(-c2ccc(O)cc2)oc2c(CN3CCC[C@H]3CO)c(O)cc(O)c12` belongs 49.7 µM; to `O=c1cc(-c2ccc(O)c(O)c2)oc2c(CN3CCCCC3)c(O)cc(O)c12`, 62.9 µM; to `O=c1cc(-c2ccccc2)oc2c(CN3CCCC3)c(O)cc(O)c12`, 182 µM.
Regarding `O=c1cc(-c2ccc(O)c(O)c2)oc2c(CN3CCCC(O)C3)c(O)cc(O)c12` (stereo not given), the IC50 stood at 63.6 µM.
For the compound `O=c1cc(-c2ccccc2)oc2c(CN3CCC(CO)CC3)c(O)cc(O)c12`, the IC50 was 83.7 µM.
To `O=c1cc(-c2ccccc2)oc2c(CN3CCC(CO)CC3)c(O)c(O)c(O)c12` belongs 470 µM.
Take `O=c1cc(-c2ccccc2)oc2c(CN3CCCC(O)C3)c(O)cc(O)c12` (stereo not given): the IC50 was found to be 259 µM.
With `CC1CCCCN1Cc1c(O)c(O)c(O)c2c(=O)cc(-c3ccccc3)oc12` (stereo not given), the IC50 turned out to be 99.7 µM.
Regarding `CC1CCCCN1Cc1c(O)cc(O)c2c(=O)cc(-c3ccc(O)c(O)c3)oc12` (stereo not given), the IC50 was 161 µM.
On to `O=c1cc(-c2ccccc2)oc2c(CN3CCN(CCO)CC3)c(O)cc(O)c12`, for which the IC50 turned out to be 135 µM.
Consider `O=c1cc(-c2ccc(O)cc2)oc2c(CN3CCN(Cc4ccccc4)CC3)c(O)cc(O)c12`, for which the IC50 is 48.5 µM.
With `CN1CCN(Cc2c(O)cc(O)c3c(=O)cc(-c4ccc(O)cc4)oc23)CC1`, the IC50 was determined as 148 µM.
As to `O=c1cc(-c2ccc(O)cc2)oc2c(CN3CCOCC3)c(O)cc(O)c12`, the IC50 turned out to be 50.5 µM.
Consider `O=c1cc(-c2ccccc2)oc2c(CN3CCOCC3)c(O)cc(O)c12`, for which the IC50 is 448 µM.
Consider `CN1CCN(Cc2c(O)c(O)c(O)c3c(=O)cc(-c4ccccc4)oc23)CC1`, for which the IC50 amounted to 302 µM.
Take `O=c1cc(-c2ccccc2)oc2c(CN3CCCC(O)C3)c(O)c(O)c(O)c12` (stereo not given): the IC50 turned out to be 68.2 µM.
Regarding `C[C@@H]1COC[C@H](C)N1Cc1c(O)cc(O)c2c(=O)cc(-c3ccc(O)c(O)c3)oc12`, the IC50 was 43.5 µM.
In the case of `O=c1cc(-c2ccc(O)c(O)c2)oc2c(CN3CCOCC3)c(O)cc(O)c12`, the IC50 is 81.9 µM.
For the compound `O=c1cc(-c2ccccc2)oc2c(CN3CCCC3)c(O)c(O)c(O)c12`, the IC50 stood at 107 µM.
Take `C[C@@H]1COC[C@H](C)N1Cc1c(O)c(O)c(O)c2c(=O)cc(-c3ccccc3)oc12`: the IC50 stood at 591 µM.
The same measure for `O=c1cc(-c2ccc(O)cc2)oc2c(CN3CCC(CO)CC3)c(O)cc(O)c12`: 40.9 µM.
Take `CN1CCN(Cc2c(O)cc(O)c3c(=O)cc(-c4ccccc4)oc23)CC1`: the IC50 came to 431 µM.
For `O=c1cc(-c2ccc(O)cc2)oc2c(CN3CCCC3)c(O)cc(O)c12`, the IC50 was 44.5 µM.
For the compound `CC1CCN(Cc2c(O)cc(O)c3c(=O)cc(-c4ccc(O)cc4)oc23)CC1`, the IC50 was 164 µM.
On to `O=c1cc(-c2ccccc2)oc2c(CN3CCN(CCO)CC3)c(O)c(O)c(O)c12`, for which the IC50 is 276 µM.
The same measure for `O=c1cc(-c2ccc(O)cc2)oc2c(CN3CCCC(O)C3)c(O)cc(O)c12` (stereo not given): 45.3 µM; for `O=c1cc(-c2ccccc2)oc2c(CN3CCCCC3)c(O)c(O)c(O)c12`: 104 µM; for `CN1CCN(Cc2c(O)cc(O)c3c(=O)cc(-c4ccc(O)c(O)c4)oc23)CC1`: 53.8 µM.
For the compound `O=c1cc(-c2ccc(O)cc2)oc2c(CN3CCC(O)CC3)c(O)cc(O)c12`, the IC50 came out at 168 µM.
To `O=c1cc(-c2ccc(O)c(O)c2)oc2c(CN3CCC(CO)CC3)c(O)cc(O)c12` belongs 64.2 µM.
To `O=c1cc(-c2ccccc2)oc2c(CN3CCC(O)CC3)c(O)c(O)c(O)c12` belongs 91.5 µM.
Turning to `CC1CCCN(Cc2c(O)cc(O)c3c(=O)cc(-c4ccc(O)cc4)oc23)C1` (stereo not given), the IC50 came out at 52.5 µM.
The same measure for `O=c1cc(-c2ccccc2)oc2c(CN3CCC(O)CC3)c(O)cc(O)c12`: 295 µM.
As for `O=c1cc(-c2ccc(O)cc2)oc2c(CN3[C@H](O)COC[C@@H]3O)c(O)cc(O)c12`, the IC50 came to 64 µM.
